Assay results from ChEMBL document CHEMBL4376865, “Discovery and Characterization of 1H-1,2,3-Triazole Derivatives as Novel Prostanoid EP4 Receptor Antagonists for Cancer Immunotherapy” (J Med Chem, 2020).

What was measured:
[1] = biological target: Prostaglandin E2 receptor EP4 subtype (Mus musculus, UniProt P32240); assay: Antagonist activity at mouse EP4 expressed in CHO cells coexpressing G16-alpha assessed as intracellular calcium flux preincubated for 15 mins followed by addition of PGE2 by calcium flux assay; format: functional, cell-based
[2] = biological target: T1, Prostaglandin E2 receptor EP1 subtype (Homo sapiens, UniProt P34995); assay: Antagonist activity at human EP1 expressed in CHO cells coexpressing G16-alpha assessed as intracellular calcium flux preincubated for 15 mins followed by addition of PGE2 by calcium flux assay; format: functional, cell-based
T1 sequence (P34995 whole entry): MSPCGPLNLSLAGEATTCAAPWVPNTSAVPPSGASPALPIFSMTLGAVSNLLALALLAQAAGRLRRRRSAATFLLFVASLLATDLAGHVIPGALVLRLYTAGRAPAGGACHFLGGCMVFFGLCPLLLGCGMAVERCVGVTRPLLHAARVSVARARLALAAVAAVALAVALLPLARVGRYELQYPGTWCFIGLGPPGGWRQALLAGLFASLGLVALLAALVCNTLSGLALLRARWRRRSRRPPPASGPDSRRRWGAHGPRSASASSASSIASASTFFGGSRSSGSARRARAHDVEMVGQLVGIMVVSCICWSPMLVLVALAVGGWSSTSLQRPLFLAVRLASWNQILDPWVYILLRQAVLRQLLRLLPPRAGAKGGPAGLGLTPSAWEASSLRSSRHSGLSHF

[3] = biological target: Prostaglandin E2 receptor EP2 subtype (Homo sapiens, UniProt P43116)
Description: Antagonist activity at human EP2 expressed in CHO cells coexpressing G16-alpha assessed as intracellular calcium flux preincubated for 15 mins followed by addition of PGE2 by calcium flux assay

[4] = biological target: T2, Prostaglandin E2 receptor EP3 subtype (Homo sapiens, UniProt P43115)
T2 sequence (P43115 whole entry): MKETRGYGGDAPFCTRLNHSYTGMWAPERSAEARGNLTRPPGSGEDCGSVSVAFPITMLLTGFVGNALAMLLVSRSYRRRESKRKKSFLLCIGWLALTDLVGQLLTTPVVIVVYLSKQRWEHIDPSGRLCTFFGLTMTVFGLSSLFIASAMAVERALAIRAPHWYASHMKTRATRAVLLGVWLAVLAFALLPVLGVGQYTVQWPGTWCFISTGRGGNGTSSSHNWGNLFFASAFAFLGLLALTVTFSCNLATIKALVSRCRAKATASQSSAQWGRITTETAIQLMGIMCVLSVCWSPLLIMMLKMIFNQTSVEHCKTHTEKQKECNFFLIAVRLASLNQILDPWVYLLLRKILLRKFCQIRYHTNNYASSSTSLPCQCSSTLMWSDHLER
Description: Antagonist activity at human EP3 expressed in CHO cells coexpressing G16-alpha assessed as intracellular calcium flux preincubated for 15 mins followed by addition of PGE2 by calcium flux assay

[5] = Metabolic stability in human liver microsomes assessed as compound remaining at 10 uM incubated for 1 hr
[6] = biological target: Prostaglandin E2 receptor EP4 subtype (Homo sapiens, UniProt P35408)
Description: Antagonist activity at human EP4 expressed in CHO cells coexpressing G16-alpha assessed as intracellular calcium flux preincubated for 15 mins followed by addition of PGE2 by calcium flux assay

in vitro [7] = conditions: human, liver microsomes
in vitro [8] = conditions: human, liver microsomes; remark: listed apart in the source
CYP2E1 = CYP2E1 (Homo sapiens, UniProt P05181); assay: Inhibition of CYP2E1 in human liver microsomes at 20 uM using chlorzoxazone as substrate incubated for 60 mins by HPLC analysis relative to control; format: ADME; conditions: probe chlorzoxazone
CYP2D6 = CYP2D6 (Homo sapiens, UniProt P10635); assay: Inhibition of CYP2D6 in human liver microsomes at 20 uM using dextromethorphan as substrate incubated for 60 mins by HPLC analysis relative to control; format: ADME; conditions: probe dextromethorphan
CYP1A2 = biological target: T3, CYP1A2 (Homo sapiens, UniProt P05177); assay: Inhibition of CYP1A2 in human liver microsomes at 20 uM using phenacetin as substrate incubated for 30 mins by HPLC analysis relative to control; format: ADME; conditions: probe phenacetin
T3 sequence (P05177 whole entry): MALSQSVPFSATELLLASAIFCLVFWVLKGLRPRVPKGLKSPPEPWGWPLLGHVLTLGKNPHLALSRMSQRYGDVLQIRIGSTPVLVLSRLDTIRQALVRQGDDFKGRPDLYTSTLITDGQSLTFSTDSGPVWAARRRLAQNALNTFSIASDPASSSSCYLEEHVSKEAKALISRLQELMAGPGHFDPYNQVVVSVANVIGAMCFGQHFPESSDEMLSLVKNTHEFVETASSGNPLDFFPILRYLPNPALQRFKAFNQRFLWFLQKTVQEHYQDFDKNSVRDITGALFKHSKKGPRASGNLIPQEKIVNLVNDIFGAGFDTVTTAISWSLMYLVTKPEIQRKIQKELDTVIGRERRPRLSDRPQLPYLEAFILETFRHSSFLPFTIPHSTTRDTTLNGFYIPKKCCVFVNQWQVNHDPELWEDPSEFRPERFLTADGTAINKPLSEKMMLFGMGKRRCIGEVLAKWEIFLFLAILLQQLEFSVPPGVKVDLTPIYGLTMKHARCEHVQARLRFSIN

CYP2B6 = biological target: T4, CYP2B6 (Homo sapiens, UniProt P20813); assay: Inhibition of CYP2B6 in human liver microsomes at 20 uM incubated for 60 mins by HPLC analysis relative to control; format: ADME
T4 sequence (P20813 whole entry): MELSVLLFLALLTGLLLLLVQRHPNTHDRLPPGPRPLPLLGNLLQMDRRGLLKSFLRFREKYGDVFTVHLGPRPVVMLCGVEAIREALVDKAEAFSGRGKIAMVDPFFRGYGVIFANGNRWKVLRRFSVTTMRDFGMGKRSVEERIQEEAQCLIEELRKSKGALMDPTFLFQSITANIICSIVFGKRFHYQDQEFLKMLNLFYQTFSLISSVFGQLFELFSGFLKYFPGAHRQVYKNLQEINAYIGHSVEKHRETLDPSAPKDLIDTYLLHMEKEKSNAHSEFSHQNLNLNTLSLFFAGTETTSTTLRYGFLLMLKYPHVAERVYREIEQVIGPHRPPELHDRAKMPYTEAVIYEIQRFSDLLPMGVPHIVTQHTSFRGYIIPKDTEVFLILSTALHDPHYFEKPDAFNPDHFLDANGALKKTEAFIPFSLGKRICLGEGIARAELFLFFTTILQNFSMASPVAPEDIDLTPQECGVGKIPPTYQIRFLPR

CYP2C9 = CYP2C9 (Homo sapiens, UniProt P11712); assay: Inhibition of CYP2C9 in human liver microsomes at 20 uM using tolbutamide as substrate incubated for 60 mins by HPLC analysis relative to control; format: ADME; conditions: probe tolbutamide
Cytochrome P450 3A4 = Cytochrome P450 3A4 (Homo sapiens, UniProt P08684); assay: Inhibition of CYP3A4 in human liver microsomes at 20 uM using testosterone as substrate incubated for 60 mins by HPLC analysis; format: ADME; conditions: 1 h
in vitro [9] = conditions: CD1, mouse, liver microsomes
in vitro [10] = conditions: CD1, mouse, liver microsomes; remark: listed apart in the source

Sequence of Prostaglandin E2 receptor EP4 subtype (Homo sapiens, UniProt P35408) (P35408 whole entry): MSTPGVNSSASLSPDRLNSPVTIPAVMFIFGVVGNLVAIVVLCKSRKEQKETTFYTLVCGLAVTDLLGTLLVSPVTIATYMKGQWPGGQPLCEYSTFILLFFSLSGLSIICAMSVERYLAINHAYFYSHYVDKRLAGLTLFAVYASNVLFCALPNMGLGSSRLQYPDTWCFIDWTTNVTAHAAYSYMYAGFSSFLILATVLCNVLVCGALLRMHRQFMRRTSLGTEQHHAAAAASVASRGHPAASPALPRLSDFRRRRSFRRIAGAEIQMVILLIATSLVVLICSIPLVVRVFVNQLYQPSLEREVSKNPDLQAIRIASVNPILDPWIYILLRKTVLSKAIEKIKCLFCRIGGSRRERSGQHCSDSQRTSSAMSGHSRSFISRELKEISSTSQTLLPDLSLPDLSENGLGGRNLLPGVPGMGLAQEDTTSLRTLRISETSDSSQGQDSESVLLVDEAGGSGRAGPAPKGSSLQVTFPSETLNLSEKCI
Sequence of Prostaglandin E2 receptor EP4 subtype (Mus musculus, UniProt P32240) (P32240 whole entry): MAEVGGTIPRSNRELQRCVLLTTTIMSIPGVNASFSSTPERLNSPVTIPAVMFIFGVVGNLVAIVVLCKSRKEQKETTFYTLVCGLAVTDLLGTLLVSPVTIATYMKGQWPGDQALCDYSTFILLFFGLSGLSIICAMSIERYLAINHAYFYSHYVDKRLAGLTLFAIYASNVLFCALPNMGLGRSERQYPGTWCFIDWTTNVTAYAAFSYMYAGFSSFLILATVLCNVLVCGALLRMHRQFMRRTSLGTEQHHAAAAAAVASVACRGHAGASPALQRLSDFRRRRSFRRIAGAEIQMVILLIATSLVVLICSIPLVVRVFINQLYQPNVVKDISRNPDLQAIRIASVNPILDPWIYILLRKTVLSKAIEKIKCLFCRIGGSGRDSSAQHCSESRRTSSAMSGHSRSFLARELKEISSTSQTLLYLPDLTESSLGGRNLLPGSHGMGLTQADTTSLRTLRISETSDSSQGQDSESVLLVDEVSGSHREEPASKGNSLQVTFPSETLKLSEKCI
Sequence of Prostaglandin E2 receptor EP2 subtype (P43116 whole entry): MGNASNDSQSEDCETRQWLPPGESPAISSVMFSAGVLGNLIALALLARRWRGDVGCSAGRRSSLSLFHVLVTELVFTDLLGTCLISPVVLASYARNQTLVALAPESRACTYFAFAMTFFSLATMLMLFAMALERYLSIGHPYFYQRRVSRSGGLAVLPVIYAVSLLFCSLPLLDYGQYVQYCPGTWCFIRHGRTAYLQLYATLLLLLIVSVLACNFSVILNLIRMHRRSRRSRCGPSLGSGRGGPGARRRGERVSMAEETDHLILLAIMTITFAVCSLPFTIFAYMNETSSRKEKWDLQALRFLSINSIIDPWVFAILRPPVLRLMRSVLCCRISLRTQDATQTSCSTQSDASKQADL
Sequence of Cytochrome P450 3A4 (P08684 whole entry): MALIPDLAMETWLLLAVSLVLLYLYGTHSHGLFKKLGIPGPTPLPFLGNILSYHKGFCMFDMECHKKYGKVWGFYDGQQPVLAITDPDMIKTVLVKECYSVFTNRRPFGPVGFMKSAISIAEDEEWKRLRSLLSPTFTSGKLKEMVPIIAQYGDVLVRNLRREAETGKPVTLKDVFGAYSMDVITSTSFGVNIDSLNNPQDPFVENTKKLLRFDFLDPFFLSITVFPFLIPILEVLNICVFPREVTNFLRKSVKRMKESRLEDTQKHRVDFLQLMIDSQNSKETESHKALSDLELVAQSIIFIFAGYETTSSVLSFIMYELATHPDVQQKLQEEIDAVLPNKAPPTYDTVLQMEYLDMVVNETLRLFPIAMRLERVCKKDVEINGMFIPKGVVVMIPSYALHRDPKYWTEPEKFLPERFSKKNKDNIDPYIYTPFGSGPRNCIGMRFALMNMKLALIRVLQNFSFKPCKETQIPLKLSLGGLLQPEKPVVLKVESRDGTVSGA
Sequence of CYP2D6 (P10635 whole entry): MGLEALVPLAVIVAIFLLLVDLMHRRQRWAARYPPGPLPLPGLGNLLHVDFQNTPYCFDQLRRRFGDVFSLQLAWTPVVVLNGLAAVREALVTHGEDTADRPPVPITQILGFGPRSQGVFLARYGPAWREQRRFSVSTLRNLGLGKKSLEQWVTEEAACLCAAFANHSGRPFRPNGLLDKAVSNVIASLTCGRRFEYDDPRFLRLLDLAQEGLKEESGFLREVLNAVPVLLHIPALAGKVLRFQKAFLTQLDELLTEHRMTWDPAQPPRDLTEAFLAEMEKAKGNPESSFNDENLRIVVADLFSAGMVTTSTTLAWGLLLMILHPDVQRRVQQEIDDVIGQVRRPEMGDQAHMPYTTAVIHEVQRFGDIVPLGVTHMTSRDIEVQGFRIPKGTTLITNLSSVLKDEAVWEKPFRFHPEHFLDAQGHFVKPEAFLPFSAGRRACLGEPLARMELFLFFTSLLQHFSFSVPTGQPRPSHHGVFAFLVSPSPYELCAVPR
Sequence of CYP2E1 (P05181 whole entry): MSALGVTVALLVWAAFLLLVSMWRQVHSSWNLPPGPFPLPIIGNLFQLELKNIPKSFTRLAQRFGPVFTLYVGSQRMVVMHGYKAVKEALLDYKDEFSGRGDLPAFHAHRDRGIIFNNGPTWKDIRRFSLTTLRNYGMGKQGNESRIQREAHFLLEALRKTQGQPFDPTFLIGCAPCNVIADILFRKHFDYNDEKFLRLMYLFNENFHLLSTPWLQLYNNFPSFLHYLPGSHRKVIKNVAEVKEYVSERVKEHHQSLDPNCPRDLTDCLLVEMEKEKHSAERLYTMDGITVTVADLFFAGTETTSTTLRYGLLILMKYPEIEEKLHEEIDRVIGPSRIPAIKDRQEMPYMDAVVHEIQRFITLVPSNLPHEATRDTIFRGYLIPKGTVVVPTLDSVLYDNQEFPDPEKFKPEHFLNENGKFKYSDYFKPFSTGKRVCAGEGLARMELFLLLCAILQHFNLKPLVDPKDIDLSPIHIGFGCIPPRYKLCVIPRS
Sequence of CYP2C9 (P11712 whole entry): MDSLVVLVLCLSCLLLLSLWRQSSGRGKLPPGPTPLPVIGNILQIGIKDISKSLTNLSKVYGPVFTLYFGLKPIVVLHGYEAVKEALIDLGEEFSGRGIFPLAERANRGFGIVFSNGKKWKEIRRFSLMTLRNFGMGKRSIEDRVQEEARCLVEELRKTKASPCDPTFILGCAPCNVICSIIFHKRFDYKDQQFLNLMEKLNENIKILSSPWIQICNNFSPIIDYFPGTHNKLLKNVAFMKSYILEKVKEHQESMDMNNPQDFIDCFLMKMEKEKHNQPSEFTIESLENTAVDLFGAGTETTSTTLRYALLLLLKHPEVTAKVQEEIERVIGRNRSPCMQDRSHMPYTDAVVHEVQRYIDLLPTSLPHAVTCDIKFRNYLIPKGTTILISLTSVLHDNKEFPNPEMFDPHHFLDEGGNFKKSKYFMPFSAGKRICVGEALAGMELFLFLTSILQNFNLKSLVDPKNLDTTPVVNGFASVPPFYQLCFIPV

## C[C@H](NC(=O)c1c(-c2ccccc2)nnn1CCOc1ccc(F)cc1)c1ccc(C(=O)O)cc1
[1]
  IC50: 132 nM
[2]
  IC50: > 10 µM
[3]
  IC50: > 10 µM
[4]
  IC50: > 10 µM

## C[C@H](NC(=O)c1c(-c2ccoc2)nnn1Cc1ccc(C(F)(F)F)cc1)c1ccc(C(=O)O)cc1
[1]
  IC50: 57.6 nM
[2]
  IC50: > 10 µM
[5]
  remaining at 1 h, 10 µM: 87.9%
[6]
  IC50: 45.6 nM
[3]
  IC50: > 10 µM
[4]
  IC50: > 10 µM
In vitro [7]
  half-life at 1 h, 10 µM: > 145 min
In vitro [8]
  microsomal CLint at 1 h, 10 µM: < 9.6 µL/min/mg

## C/C=C/c1nnn(Cc2ccc(C(F)(F)F)cc2)c1C(=O)N[C@H](C)c1ccc(C(=O)O)cc1
[6]
  IC50: > 1000 nM

## C[C@H](NC(=O)c1c(-c2ccccc2)nnn1Cc1ccc(F)cc1)c1ccc(C(=O)O)cc1
[6]
  IC50: 330 nM

## C[C@H](NC(=O)c1c(C(F)(F)F)nnn1Cc1ccc(C(F)(F)F)cc1)c1ccc(C(=O)O)cc1
[6]
  IC50: 225 nM

## C[C@H](NC(=O)c1c(C2=CCCC2)nnn1Cc1ccc(C(F)(F)F)cc1)c1ccc(C(=O)O)cc1
[1]
  IC50: 400 nM
[2]
  IC50: > 10 µM
[3]
  IC50: > 10 µM
[4]
  IC50: > 10 µM

## COc1cccc(Cn2nnc(-c3ccccc3)c2C(=O)N[C@@H](C)c2ccc(C(=O)O)cc2)c1
[6]
  IC50: 96.8 nM

## C/C=C/c1nnn(Cc2ccc(C(F)(F)F)cc2)c1C(=O)NCc1ccc(C(=O)O)cc1
[1]
  IC50: 130 nM
[6]
  IC50: 10.5 nM

## C[C@H](NC(=O)c1c(C(F)(F)F)nnn1CCc1ccc(F)cc1)c1ccc(C(=O)O)cc1
[6]
  IC50: > 10000 nM

## C[C@H](NC(=O)c1c(-c2ccccc2)nnn1CCOc1cccc(C(F)(F)F)c1)c1ccc(C(=O)O)cc1
CYP2E1
  inhibition at 1 h, 20 µM: 67%
CYP2D6
  inhibition at 1 h, 20 µM: 30%
[1]
  IC50: 135 nM
[2]
  IC50: > 10 µM
CYP1A2
  inhibition at 0.5 h, 20 µM: 30%
CYP2B6
  inhibition at 1 h, 20 µM: 51%
CYP2C9
  inhibition at 1 h, 20 µM: 67%
Cytochrome P450 3A4
  inhibition (INH): Not Active
[3]
  IC50: > 10 µM
[4]
  IC50: > 10 µM

## C[C@H](NC(=O)c1nnn(Cc2cccc(C(F)(F)F)c2)c1C(F)(F)F)c1ccc(C(=O)O)cc1
[6]
  IC50: > 10000 nM

## COc1ccc(Cn2nnc(-c3ccccc3)c2C(=O)N[C@@H](C)c2ccc(C(=O)O)cc2)cc1
[6]
  IC50: 9.3 nM

## C[C@H](NC(=O)c1c(-c2ccccc2)nnn1Cc1ccc(C(F)(F)F)cc1)c1ccc(C(=O)O)cc1
[1]
  IC50: 906 nM
[2]
  IC50: > 10 µM
[5]
  remaining at 1 h, 10 µM: 84.9%
[6]
  IC50: 8.5 nM
[3]
  IC50: > 10 µM
[4]
  IC50: > 10 µM
In vitro [7]
  half-life at 1 h, 10 µM: > 145 min
In vitro [8]
  microsomal CLint at 1 h, 10 µM: < 9.6 µL/min/mg

## CCCc1c(C(=O)N[C@@H](C)c2ccc(C(=O)O)cc2)nnn1Cc1ccc(C(F)(F)F)cc1
[6]
  IC50: > 10000 nM

## Cc1nnn(Cc2ccc(C(F)(F)F)cc2)c1C(=O)N[C@@H](C)c1ccc(C(=O)O)cc1
[6]
  IC50: > 10000 nM

## C[C@H](NC(=O)c1cnnn1Cc1ccc(C(F)(F)F)cc1)c1ccc(C(=O)O)cc1
[6]
  IC50: > 10000 nM

## COc1ccc(Cn2nnc(-c3ccccc3)c2C(=O)N[C@@H](C)c2ccc(C(=O)O)cc2)cc1OC
[6]
  IC50: 119 nM

## C[C@H](NC(=O)c1c(C2CCCCC2)nnn1Cc1ccc(C(F)(F)F)cc1)c1ccc(C(=O)O)cc1
[6]
  IC50: 161 nM

## Cc1ccc(-c2nnn(Cc3ccc(C(F)(F)F)cc3)c2C(=O)N[C@@H](C)c2ccc(C(=O)O)cc2)s1
[1]
  IC50: 42.1 nM
[2]
  IC50: > 10 µM
[3]
  IC50: > 10 µM
[4]
  IC50: > 10 µM

## C/C=C/c1nnn(Cc2ccc(C(F)(F)F)cc2)c1C(=O)NCC1CCC(C(=O)O)CC1 (configuration not stated)
[1]
  IC50: 220 nM

## C[C@H](NC(=O)c1c(-c2ccc(F)cc2)nnn1Cc1ccc(C(F)(F)F)cc1)c1ccc(C(=O)O)cc1
[6]
  IC50: 57.9 nM

## C[C@H](NC(=O)c1c(C2=CCCCC2)nnn1Cc1ccc(C(F)(F)F)cc1)c1ccc(C(=O)O)cc1
[6]
  IC50: 183 nM

## C[C@H](NC(=O)c1c(-c2ccccc2)nnn1CCOc1ccc(C(F)(F)F)cc1)c1ccc(C(=O)O)cc1
[6]
  IC50: 49.1 nM

## C/C=C/c1nnn(Cc2ccc(C(F)(F)F)cc2)c1C(=O)NC1(c2ccc(C(=O)O)cc2)CC1
[1]
  IC50: 33.7 nM
[6]
  IC50: 13.9 nM

## C[C@H](NC(=O)c1nnn(CCc2ccc(F)cc2)c1C(F)(F)F)c1ccc(C(=O)O)cc1
[6]
  IC50: > 10000 nM

## C[C@H](NC(=O)c1c(-c2ccccc2)nnn1CC1CCCCC1)c1ccc(C(=O)O)cc1
[6]
  IC50: > 10000 nM

## C[C@H](NC(=O)c1nnn(Cc2ccc(C(F)(F)F)cc2)c1C(F)(F)F)c1ccc(C(=O)O)cc1
[6]
  IC50: > 10000 nM

## CCc1nnn(Cc2ccc(C(F)(F)F)cc2)c1C(=O)N[C@@H](C)c1ccc(C(=O)O)cc1
[6]
  IC50: > 10000 nM

## C[C@H](NC(=O)c1c(C2CCC2)nnn1Cc1ccc(C(F)(F)F)cc1)c1ccc(C(=O)O)cc1
[6]
  IC50: 75.3 nM

## CC#Cc1nnn(Cc2ccc(C(F)(F)F)cc2)c1C(=O)N[C@@H](C)c1ccc(C(=O)O)cc1
CYP2E1
  inhibition at 1 h, 20 µM: 76%
CYP2D6
  inhibition at 1 h, 20 µM: 38%
[1]
  IC50: 70.9 nM
[2]
  IC50: > 10 µM
CYP1A2
  inhibition at 0.5 h, 20 µM: 82%
CYP2B6
  inhibition at 1 h, 20 µM: 34%
CYP2C9
  inhibition at 1 h, 20 µM: 69%
Cytochrome P450 3A4
  inhibition (INH): Not Active
[6]
  IC50: 32 nM
[3]
  IC50: > 10 µM

## O=C(O)Cc1ccccc1Nc1c(Cl)cccc1Cl [DICLOFENAC]
In vitro [7]
  half-life at 1 h, 10 µM: 10.6 min
In vitro [8]
  microsomal CLint at 1 h, 10 µM: 131 µL/min/mg
In vitro [9]
  half-life at 1 h, 10 µM: 53.6 min
In vitro [10]
  microsomal CLint at 1 h, 10 µM: 25.8 µL/min/mg
